The nature of test [1]: DPPH radical scavenging assay (antioxidant activity). To be noted: 1000 μg/ml, 30 minutes. It counts as biochemical. The procedure: Antioxidant activity of various Ashwagandha samples was measured using a 2,2-diphenyl-1-picrylhydrazyl (DPPH) radical scavenging assay. DPPH is a stable free radical that produces violet solution in ethanol and, upon reduction by antioxidant compounds, produces light yellow-to-colorless solutions. For comparative antioxidant activity analysis of […], relative to non- branded and branded Ashwagandha compositions, two different dilutions (100 μg/ml and 1000 μg/ml) of each sample were prepared in ethanol and 500 μl of each sample dilution was mixed (1:1) with 500 μl of 0.04 mg/ml DPPH (Sigma #D9132-1G) ethanolic solution. Gallic acid (a natural polyphenolic antioxidant) and sucrose were used as positive and negative controls, respectively. All samples and controls were thoroughly vortexed and incubated for 30 minutes at room temperature in the dark followed by absorbance (Abs) readings at 517 nm using a spectrophotometer. Percentage antioxidant activity was calculated using the formula: 100-(AbsSample-AbsBlank/AbsControl×100), where AbsSample=Sample Dilution+DPPH Solution; AbsBlank=Sample Dilution+DPPH solvent; and AbsControl=Sample Solvent+DPPH Solution.

The next test relates to HEK293 cells. The test is described as follows: cells. The following applies: Homo sapiens, HEK293, read-out: IC50 for H2O2 treatment (cell viability).

The structures appear in SMILES notation.

Method for HEK293 cells: Cell viability was analyzed using the MTT assay described herein.

With `O=C(O)c1cc(O)c(O)c(O)c1` [Gallic acid], the “percent anti-oxidant activity (%AA)” value in test [1] was determined as 90.12±1.1%.

By IC50 is commonly meant the midpoint of a concentration-inhibition curve. In the case of `OO` [H2O2, hydrogen peroxide], the IC50 in the test on HEK293 cells worked out at 400 µM.

(Values after patent publication US20240123016A1, “WITHANOLIDE-ENRICHED COMPOSITIONS AND METHODS OF USE THEREOF” (priority 2021, published 2024).)
